System: cord-derived fibroblasts
Experiment: Propagation of cord-derived feeders with FGF2 supplementation
Assay type: cell-based, human
Conditions: medium supplemented with FGF2; FIG. 16
Experimental: Term umbilical cord tissue was minced as above, and the small pieces of tissue were plated in the fibroblast culture medium, as described above. To promote the adherence of the tissue pieces to the culture dish, flasks were incubated upright overnight. Cells emanating from the tissue pieces were propagated as above.

FGF2: growth factor supplementing the medium
proliferation of the fibroblasts: could be augmented

— patent US9005965B2, “Stem cells culture systems” (Hadasit Medical Research Services & Development Limited, priority 2004, dated 2015)
